Measured values taken from patent publication EP3431468B1, “USE OF ADIPONECTIN RECEPTOR AGONISTS IN TREATING DEPRESSION, ANXIETY AND NEUROINFLAMMATION” (CENTRE NATIONAL DE LA RECHERCHE SCIENTIFIQUE, priority 2017, dated 2019).

How the values were obtained:
[1] = system: corticosterone-treated mice; assay: Social interaction test, chronic administration; type: in vivo; conditions: chronic 1mg/kg ip daily
Protocol: (§1) Three well-established mouse models of depression-like behavior have been used in the present study namely i- the long-term corticosterone treatment in the drinking water (David, Samuels et al. 2009), ii- the peripheral administration of LPS (O'Connor, Lawson et al. 2009) iii- the ApN^-/- mice (Liu, Guo et al. 2012). For chronic AdipoRon treatment, the experimental protocol was as followed: • i- Five weeks old male mice (five/cage) received corticosterone (35mg/L dissolved in tap water containing 4 g/L CD) or vehicle alone ad libitum for during 7 consecutive weeks (David, Samuels et al. 2009). Corticosterone and vehicle solutions were changed every 3 days to prevent possible degradation. […]
(§2) All behavioral testing were conducted during the light phase (between 09:00 and 14:00 am) in compliance with the Institutional Animal Care and Use Committee of the University of Nice-Sophia Antipolis (permission number 010344.01 from the French "Ministère de l'Enseignement Supérieur et de la Recherche" granted to Dr. Joëlle Chabry). • Forced Swimming test (FST) - Mice were placed an inescapable transparent tank (20cm diameter, 30cm deep) filled with water (23°C ± 0.5) for six minutes as previously described by Porsolt et al. (1977). […] To initiate testing, mice were placed into the light side and activity was recorded for 5 minutes. […]

[2] = system: corticosterone-treated mice; assay: Forced Swimming test (FST), chronic administration; type: in vivo; conditions: chronic 1mg/kg ip daily
Protocol: as §1, §2

[3] = system: presumed serotoninergic neurons; assay: Whole-cell patch-clamp recordings on brain slices, voltage clamp; type: cell-based, mouse
[4] = system: corticosterone-treated mice; assay: Light & Dark test (L&D), chronic administration; type: in vivo; conditions: chronic 1mg/kg ip daily
Protocol: as §1, §2

[5] = system: corticosterone-treated mice; assay: Novelty Suppressed Feeding (NSF), chronic administration; type: in vivo; conditions: chronic 1mg/kg ip daily
Protocol: as §1, §2

[6] = system: corticosterone-treated mice; assay: Learned Helplessness (LH), chronic administration; type: in vivo; conditions: chronic 1mg/kg ip daily
Protocol: as §1, §2

[7] = system: corticosterone-treated mice; assay: Sucrose preference test, chronic administration; type: in vivo; conditions: chronic 1mg/kg ip daily
Protocol: as §1, §2

[8] = vehicle-treated mice (no corticosterone)

With `O=C(COc1ccc(C(=O)c2ccccc2)cc1)NC1CCN(Cc2ccccc2)CC1` [AdipoRon, 2-(4-Benzoylphenoxy)-N-[1-(phenylmethyl)-4-piperidinyl]-acetamide] the social interactions ([1]; corticosterone-treated mice) was “reversed the effect of corticosterone”, the social interactions [1, 8] was “no significant effect” and the “immobility duration in the FST (resignation)” value ([2]; corticosterone-treated mice) was “reversed the effect of corticosterone”. The “immobility duration in the FST (resignation)” value [2, 8] was “no significant effect”, the “effect of AdipoRon on current and membrane conductance” value ([3]; CsCl internal solution instead of KCl solution) was “blocked” and the membrane conductance ([3]; holding potential of -60 mV, KCl internal solution, 10 µM AdipoRon) was “decrease in membrane conductance”. For the same compound, the induced current ([3]; holding potential of -60 mV, KCl internal solution, n=9/9 presumed serotoninergic neurons, N=5 mice, 10 µM AdipoRon) was “small inward current”, the “time spent in the aversive light chamber (anxiety behavior)” value ([4]; corticosterone-treated mice) was “reversed the anxiety phenotype” and the “time spent in the aversive light chamber (anxiety behavior)” value [4, 8] was “without effect”. For the same compound, the “latency to eat in the NSF” value ([5]; corticosterone-treated mice) was “reversed the effect of corticosterone”, the “latency to eat in the NSF” value [5, 8] was “no significant effect” and the “resignation-like behavior in the LH test (latency, failures to escape)” value ([6]; corticosterone-treated mice) was “reversed the effect of corticosterone”. For the same compound, the “resignation-like behavior in the LH test (latency, failures to escape)” value [6, 8] was “no significant effect”, the “sucrose preference (anhedonia)” value ([7]; corticosterone-treated mice) was “reversed the effect of corticosterone” and the “sucrose preference (anhedonia)” value [7, 8] was “no significant effect”.
